Data from patent US20260167659A1, “STING AGONISTS” (LIGACHEM BIOSCIENCES INC., priority 2022, published 2026).

Assays:
hSTING-WT (R232) = target: T1, hSTING-WT (R232) (Homo sapiens, UniProt Q86WV6, H232R); test: STING activation, THP1-Dual IRF3 reporter assay, hSTING-R232 cells; assay type: cell-based; details: IRF3 luciferase reporter, 24 hours, read-out: STING activity using hSTING-R232 cells EC50
T1 construct: host or cells: THP1-Dual cells (human monocytes) with knocked-in hSTING R232
Experimental: (§1) To assess potency of STING agonist compounds described herein, THP1-Dual™ Cells (NF—KB-SEAP and IRF-Lucia luciferase reporter monocytes, InvivoGen) were used. The reporter cells were knocked-in either of hSTING-WT (R232, #thpd-r232), HAQ variant (#thpd-nfis), or H232 variant (#thpd-h232). All cells were cultured at 37° C. in a humidified incubator at 5% CO2 and maintained in RPMI 1640 medium (Gibco, #22400097) supplemented with 10% heat-inactivated FBS and 1×Pen-Strep (Gibco, #15140122). To measure STING agonist-mediated IRF3 activity, the cells (9.0×10^4 cells per well) were seeded in a flat-bottomed 96-well plate. The next day, the cells were treated with compounds in a serial dilution for 24 hours. Subsequently, 20 μL of the cell culture supernatant and 50 μL of the QUANTI-Luc™ reagent (InvivoGen, #rep-qlc) were mixed in a 96-well white plate and then, luciferase activity was measured using an EnVision Xcite multilabel reader. The data were analyzed using Prism8 software (4-parameter).
(§2) The potency of STING agonist compounds was evaluated by the activation of Type I Interferon pathway using THP-1 IRF3 reporter assay.

human STING = target: T2, human STING (Homo sapiens, UniProt Q86WV6, H232R); test: Direct STING binding, HUMAN STING WT BINDING KIT (Cisbio); details: direct binding to human STING WT protein in vitro; read-out: Binding potency EC50
T2 construct: purchased Cisbio 64BDSTGPEG
T2 sequence (Q86WV6 whole entry H232R): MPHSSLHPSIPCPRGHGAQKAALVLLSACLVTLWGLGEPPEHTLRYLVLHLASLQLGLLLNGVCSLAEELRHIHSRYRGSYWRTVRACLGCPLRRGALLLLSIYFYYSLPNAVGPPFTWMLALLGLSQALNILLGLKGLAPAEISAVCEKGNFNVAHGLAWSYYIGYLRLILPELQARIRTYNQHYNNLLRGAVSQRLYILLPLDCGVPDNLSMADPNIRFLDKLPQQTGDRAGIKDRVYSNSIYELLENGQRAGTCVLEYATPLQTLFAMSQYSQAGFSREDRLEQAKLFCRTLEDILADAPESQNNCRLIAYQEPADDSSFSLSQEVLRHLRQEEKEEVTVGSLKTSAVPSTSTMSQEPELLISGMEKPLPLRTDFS
From the text: Additionally, for analysis of direct binding potency of STING agonist compounds described herein to human STING, HUMAN STING WT BINDING KIT (Cisbio, #64BDSTGPEG) was used according to the manufacture's instruction.

hSTING HAQ variant = target: T3, hSTING HAQ variant (Homo sapiens, UniProt Q86WV6, G230A/H232R/R293Q/R71H); test: STING activation, THP1-Dual IRF3 reporter assay, hSTING-HAQ cells; assay type: cell-based; details: IRF3 luciferase reporter, 24 hours, read-out: STING activity using hSTING-HAQ cells, HAQ EC50
T3 construct: host or cells: THP1-Dual cells (human monocytes)
T3 sequence (Q86WV6 whole entry R71H/G230A/H232R/R293Q): as the sequence (Q86WV6 whole entry H232R) above, with R71H, G230A, R293Q counted along it
Experimental: as §1, §2

[1] = Normal cell cytotoxicity in PBMCs, CellTiter-Glo; assay type: cell-based; details: human, read-out: In vitro cell cytotoxicity in PBMCs CC50
Experimental: PBMCs were also purchased from […]™ (#700025.2). The cells (8.0×10^4 cells per well) were seeded in a flat-bottomed 96-well plate in RPMI 1640 medium (Gibco, #22400097) with 10% heat-inactivated FBS and 1× Antibiotic-Antimycotic (Gibco, #15240062) and rested for 24 hours at 37° C. […] After 72 hours, the cell viability was measured using CellTiter-Glo Luminescent Cell Viability Assay (Promega, #G7573) according to the manufacture's instruction. The signal was detected using an EnVision Xcite multilabel reader and data were analyzed using GraphPad Prism 8 software.
To verify the effect of the STING agonist compounds in normal cell cytotoxicity, the PBMCs were treated with the STING agonist compounds for 3 days and measured the percentage of cell death.

hSTING H232 variant = target: T4, hSTING H232 variant (Homo sapiens, UniProt Q86WV6); test: STING activation, THP1-Dual IRF3 reporter assay, hSTING-H232 cells; assay type: cell-based; details: IRF3 luciferase reporter, 24 hours, read-out: STING activity using hSTING-H232 cells, H232 EC50
T4 construct: host or cells: THP1-Dual cells (human monocytes) with knocked-in hSTING H232
Experimental: as §1, §2

T1 sequence (Q86WV6 whole entry H232R): as the sequence (Q86WV6 whole entry H232R) above

Row | SMILES | EC50 (hSTING-WT (R232)) [nM] | EC50 (human STING) [nM] | further results
1 | CCn1nc(C)cc1C(=O)Nc1nc2cc(C(N)=O)cc(OC)c2n1C/C=C/Cn1c(NC(=O)c2cc(C)nn2CC)nc2cc(C(N)=O)cc(OC/C=C/Cn3cc(NC(=O)OCc4ccc(O[C@@H]5O[C@H](C(=O)O)[C@@H](O)[C@H](O)[C@H]5O)c(C(=O)NCCC(=O)NC(CC(=O)O)CC(=O)O)c4)cn3)c21 [Compound 328] | 80.7 | 0.04 | –
2 | C#CCNC(=O)c1cc(COC(=O)Nc2cnn(C/C=C/COc3cc(C(N)=O)cc4nc(NC(=O)c5cc(C)nn5CC)n(C/C=C/Cn5c(NC(=O)c6cc(C)nn6CC)nc6cc(C(N)=O)cc(OC)c65)c34)c2)ccc1O[C@@H]1O[C@H](C(=O)OC)[C@@H](OC(C)=O)[C@H](OC(C)=O)[C@H]1OC(C)=O [Compound 347] | 10.5 | – | –
3 | CCn1nc(C)cc1C(=O)Nc1nc2cc(C(N)=O)cc(OC)c2n1C/C=C/Cn1c(NC(=O)c2cc(C)nn2CC)nc2cc(C(N)=O)cc(OCCc3ccc(NC(=O)OCc4ccc(O[C@@H]5O[C@H](C(=O)O)[C@@H](O)[C@H](O)[C@H]5O)c(C(=O)NCCOCCOCCN(C)C)c4)cc3)c21 [Compound 262] | 6.78 | – | –
4 | CCn1nc(C)cc1C(=O)Nc1nc2cc(C(N)=O)cc(OC)c2n1C/C=C/Cn1c(NC(=O)c2cc(C)nn2CC)nc2cc(C(N)=O)cc(OC/C=C/Cn3cc(NCCC(=O)OC)cn3)c21 [Compound 174] | 44.4 | – | –
5 | CCn1nc(C)cc1C(=O)Nc1nc2cc(C(N)=O)cc(OC)c2n1C/C=C/Cn1c(NC(=O)c2cc(C)nn2CC)nc2cc(C(N)=O)cc(OC/C=C/CN3CCCN3C(=O)OCc3ccc(O[C@@H]4O[C@H](C(=O)O)[C@@H](O)[C@H](O)[C@H]4O)c(C(=O)NCCOC)c3)c21 [Compound 419] | 38.1 | – | –
6 | CCn1nc(C)cc1C(=O)Nc1nc2cc(C(N)=O)cc(OC)c2n1C/C=C/Cn1c(NC(=O)c2cc(C)nn2CC)nc2cc(C(N)=O)cc(OC/C=C/Cn3cc(NC(=O)OCc4ccc(O[C@@H]5O[C@H](C(=O)O)[C@@H](O)[C@H](O)[C@H]5O)c(C(=O)NCCOCCOCCOCCOCCOCC(=O)O)c4)cn3)c21 [Compound 285] | 33.5 | 0.3 | –
7 | CCn1nc(C)cc1C(=O)Nc1nc2cc(C(N)=O)cc(OC/C=C/Cn3cc(NC(=O)OCc4ccc(O[C@@H]5O[C@H](C(=O)O)[C@@H](O)[C@H](O)[C@H]5O)c(C(=O)NCCOCCOCCO)c4)cn3)c2n1C/C=C/Cn1c(NC(=O)c2cc(C)nn2CC)nc2cc(C(N)=O)cc(OCCCC(=O)O)c21 [Compound 316] | 88.2 | – | EC50 (hSTING HAQ variant): 400 nM; CC50 at 72 h [1]: 207 nM; EC50 (hSTING H232 variant): 251 nM
8 | CCn1nc(C)cc1C(=O)Nc1nc2cc(C(N)=O)cc(OC)c2n1C/C=C/Cn1c(NC(=O)c2cc(C)nn2CC)nc2cc(C(N)=O)cc(OC/C=C/Cn3cc(NC(=O)OCc4ccc(O[C@@H]5O[C@H](C(=O)O)[C@@H](O)[C@H](O)[C@H]5O)c(C(=O)NCCOCCOCCN=[N+]=[N-])c4)cn3)c21 [Compound 367] | 7.67 | – | –
9 | CCn1nc(C)cc1C(=O)Nc1nc2cc(C(N)=O)cc(OC)c2n1C/C=C/Cn1c(NC(=O)c2cc(C)nn2CC)nc2cc(C(N)=O)cc(OC/C=C/Cn3cc(NC(=O)OCc4ccc(O[C@@H]5O[C@H](C(=O)O)[C@@H](O)[C@H](O)[C@H]5O)c(C(=O)NCCCn5cc(CCOP(=O)(O)O)nn5)c4)cn3)c21 [Compound 357] | 50.4 | 0.14 | –
10 | CCn1nc(C)cc1C(=O)Nc1nc2cc(C(N)=O)cc(OC)c2n1C/C=C/Cn1c(NC(=O)c2cc(C)nn2CC)nc2cc(C(N)=O)cc(OC/C=C/Cn3cc(NC(=O)OCc4ccc(O[C@@H]5O[C@H](CO)[C@H](O)[C@H](O)[C@H]5O)c(C(=O)NCCOC)c4)cn3)c21 [Compound 320] | 3.65 | 0.04 | –
11 | CCn1nc(C)cc1C(=O)Nc1nc2cc(C(N)=O)cc(OC)c2n1C/C=C/Cn1c(NC(=O)c2cc(C)nn2CC)nc2cc(C(N)=O)cc(OC/C=C/CN3CCN(C(=O)OCc4ccc(O[C@@H]5O[C@H](C(=O)O)[C@@H](O)[C@H](O)[C@H]5O)c(C(=O)NCCOC)c4)CC3=O)c21 [Compound 417] | 24.6 | – | –
12 | CCn1nc(C)cc1C(=O)Nc1nc2cc(C(N)=O)cc(OC)c2n1C/C=C/Cn1c(NC(=O)c2cc(C)nn2CC)nc2cc(C(N)=O)cc(OCCc3ccc(NC(=O)OCc4ccc(O[C@@H]5O[C@H](C(=O)O)[C@@H](O)[C@H](O)[C@H]5O)c(C(=O)NCCOC)c4)cc3)c21 [Compound 239] | 4.46 | – | –
13 | CCn1nc(C)cc1C(=O)Nc1nc2cc(C(N)=O)cc(OC)c2n1C/C=C/Cn1c(NC(=O)c2cc(C)nn2CC)nc2cc(C(N)=O)cc(OC/C=C/Cn3cc(NC(=O)OCc4ccc(O[C@@H]5O[C@H](C(=O)O)[C@@H](O)[C@H](O)[C@H]5O)c(C(=O)O)c4)cn3)c21 [Compound 299] | 7.2 | 0.27 | –
14 | CCn1nc(C)cc1C(=O)Nc1nc2cc(C(N)=O)cc(OC/C=C/Cn3cc(NC(=O)OCc4ccc(O[C@@H]5O[C@H](C(=O)O)[C@@H](O)[C@H](O)[C@H]5O)c(C(=O)NCCOCCOCCN(C)C)c4)cn3)c2n1C/C=C/Cn1c(NC(=O)c2cc(C)nn2CC)nc2cc(C(N)=O)cc(OC/C=C/Cn3cc(NC(=O)OCc4ccc(O[C@@H]5O[C@H](C(=O)O)[C@@H](O)[C@H](O)[C@H]5O)c(C(=O)NCCOCCOCCN(C)C)c4)cn3)c21 [Compound 359] | 463 | 0.17 | –
15 | CCn1nc(C)cc1C(=O)Nc1nc2cc(C(N)=O)cc(OC)c2n1C/C=C/Cn1c(NC(=O)c2cc(C)nn2CC)nc2cc(C(N)=O)cc(OC/C=C/Cn3cc(NC(=O)OCc4ccc(O[C@@H]5O[C@H](C(=O)O)[C@@H](O)[C@H](O)[C@H]5O)c(C(=O)NCCOC)c4)cn3)c21 [Compound 272] | 18.8 | – | –
16 | CCn1nc(C)cc1C(=O)Nc1nc2cc(C(N)=O)cc(OC)c2n1C/C=C/Cn1c(NC(=O)c2cc(C)nn2CC)nc2cc(C(N)=O)cc(OC/C=C/Cn3cc(NC(=O)OCc4ccc(O[C@@H]5O[C@H](C(=O)O)[C@@H](O)[C@H](O)[C@H]5O)c(C(=O)NCCOCCOCCN5CCOCC5)c4)cn3)c21 [Compound 291] | 8.86 | 0.26 | –
17 | CCn1nc(C)cc1C(=O)Nc1nc2cc(C(N)=O)cc(OC)c2n1C/C=C/Cn1c(NC(=O)c2cc(C)nn2CC)nc2cc(C(N)=O)cc(OC/C=C/Cn3cc(NC(=O)OCc4ccc(O[C@@H]5O[C@H](CO)[C@H](O)[C@H](O)[C@H]5O)c(C(=O)NCCOCCOCCO)c4)cn3)c21 [Compound 307] | 5.36 | 0.18 | –
18 | CCn1nc(C)cc1C(=O)Nc1nc2cc(C(N)=O)cc(OC/C=C/Cn3cc(NC(=O)OCc4ccc(OC5O[C@H](C(=O)O)[C@@H](O)[C@H](O)[C@H]5O)c(C(=O)NCCOCCOCCN(C)C)c4)cn3)c2n1C/C=C/Cn1c(NC(=O)c2cc(C)nn2CC)nc2cc(C(N)=O)cc(OCCCS(C)(=O)=NC(=O)OCc3ccc(O[C@@H]4O[C@H](C(=O)O)[C@@H](O)[C@H](O)[C@H]4O)c(C(=O)NCCOCCOCCN(C)C)c3)c21 (stereo partly drawn) [Compound 376] | 287 | – | –
19 | CCn1nc(C)cc1C(=O)Nc1nc2cc(C(N)=O)cc(OC)c2n1C/C=C/Cn1c(NC(=O)c2cc(C)nn2CC)nc2cc(C(N)=O)cc(OC/C=C/CN(CCCNC(=O)OCc3ccc(O[C@@H]4O[C@H](C(=O)O)[C@@H](O)[C@H](O)[C@H]4O)c(C(=O)NCCOCCOCCN4CCOCC4)c3)C(=N)N)c21 [Compound 332] | 574 | – | –
20 | CCn1nc(C)cc1C(=O)Nc1nc2cc(C(N)=O)cc(OC)c2n1C/C=C/Cn1c(NC(=O)c2cc(C)nn2CC)nc2cc(C(N)=O)cc(OC/C=C/Cn3cc(NC(=O)OCc4ccc(O[C@@H]5O[C@H](CO)[C@H](O)[C@H](O)[C@H]5O)c(C(=O)NCCOCCOCCN(C)C)c4)cn3)c21 [Compound 337] | 16.2 | 0.19 | –
21 | CCn1nc(C)cc1C(=O)Nc1nc2cc(C(N)=O)cc(OC)c2n1C/C=C/Cn1c(NC(=O)c2cc(C)nn2CC)nc2cc(C(N)=O)cc(OC/C=C/Cn3cc(NC(=O)OCc4ccc(O[C@@H]5O[C@H](C(=O)O)[C@@H](O)[C@H](O)[C@H]5O)c(C(=O)NCCOCCOCCN)c4)cn3)c21 [Compound 372] | 54.6 | – | –
